# In article PMC6467542 (Bioorganic & Medicinal Chemistry, 2019):
# Legend:
# M. tb (strain H37Rv) [1] = assay: MIC90 against replicating M.tb (MABA); assay type: cell-based, Mycobacterium tuberculosis; conditions: Mycobacterium tuberculosis, aerobic (replicating) conditions, 90% inhibition of growth
# M. tb (strain H37Rv) [2] = assay: MIC90 against non-replicating M.tb (LORA); assay type: cell-based, Mycobacterium tuberculosis; conditions: Mycobacterium tuberculosis, H37RV, read-out: MIC90 LORA
# Protocol: In these assays, 1 is a potent inhibitor, with MICs of 0.08 and 0.12 µg/mL, respectively. Replacement of the naphthalene C-unit of 1 with various pyridyls produced analogues of considerably lower lipophilicity, with clogP values ranging from 6.89 down to 2.98.
# in vitro [3] = conditions: human, microsomes
# in vitro [4] = conditions: mouse, microsomes
# hERG potassium channel = hERG potassium channel (Homo sapiens, UniProt Q12809); assay: Inhibition of hERG potassium current (patch clamp electrophysiology); conditions: for IC50: read-out: hERG IC50, manual patch clamp, 5-concentration dose-response
# [5] = mouse, in vivo
# hERG potassium channel, sequence (Q12809 whole entry): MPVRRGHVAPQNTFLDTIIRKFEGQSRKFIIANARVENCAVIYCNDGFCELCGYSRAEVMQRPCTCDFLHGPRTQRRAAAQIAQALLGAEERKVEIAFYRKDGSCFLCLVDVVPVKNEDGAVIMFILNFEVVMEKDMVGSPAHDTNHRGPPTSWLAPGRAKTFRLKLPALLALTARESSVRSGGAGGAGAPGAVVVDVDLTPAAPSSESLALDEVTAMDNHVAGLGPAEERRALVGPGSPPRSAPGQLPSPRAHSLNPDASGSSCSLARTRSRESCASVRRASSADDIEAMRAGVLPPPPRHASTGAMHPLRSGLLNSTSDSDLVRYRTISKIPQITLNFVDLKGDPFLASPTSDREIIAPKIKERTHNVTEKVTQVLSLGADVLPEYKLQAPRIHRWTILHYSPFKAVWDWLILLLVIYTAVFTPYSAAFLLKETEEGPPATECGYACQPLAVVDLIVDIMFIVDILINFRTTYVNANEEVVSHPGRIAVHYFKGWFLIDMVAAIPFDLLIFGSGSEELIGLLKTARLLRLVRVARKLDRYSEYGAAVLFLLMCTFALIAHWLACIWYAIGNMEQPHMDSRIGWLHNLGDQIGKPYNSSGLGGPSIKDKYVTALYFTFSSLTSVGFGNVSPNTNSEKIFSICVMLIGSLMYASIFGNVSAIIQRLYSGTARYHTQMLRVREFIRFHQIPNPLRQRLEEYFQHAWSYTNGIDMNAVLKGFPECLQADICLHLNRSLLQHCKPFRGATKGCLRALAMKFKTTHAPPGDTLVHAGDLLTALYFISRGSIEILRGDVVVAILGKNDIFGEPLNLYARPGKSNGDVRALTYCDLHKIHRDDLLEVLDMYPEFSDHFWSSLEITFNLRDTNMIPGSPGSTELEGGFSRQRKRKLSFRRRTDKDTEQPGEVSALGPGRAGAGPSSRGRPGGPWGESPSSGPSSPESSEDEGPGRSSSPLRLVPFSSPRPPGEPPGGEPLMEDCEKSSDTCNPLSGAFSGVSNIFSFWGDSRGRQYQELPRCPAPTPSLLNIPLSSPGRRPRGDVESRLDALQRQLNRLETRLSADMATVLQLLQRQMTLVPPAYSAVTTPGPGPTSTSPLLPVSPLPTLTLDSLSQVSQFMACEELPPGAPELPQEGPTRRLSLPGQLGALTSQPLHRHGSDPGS
SMILES,MIC90 (M. tb (strain H37Rv) [1]) [µg/mL],MIC90 (M. tb (strain H37Rv) [2]) [µg/mL],further results
COc1cccc(C(c2cc3cc(Br)ccc3nc2OC)C(O)(CCN(C)C)c2cncc(C)c2)c1OC (centres unmarked) [Compound 28],0.3,0.57,–
COc1cccc(C(c2cc3cc(C#N)ccc3nc2OC)C(O)(CCN(C)C)c2cncc(C)c2)c1OC (centres unmarked) [Compound 29],4.2,3.8,–
COc1cccc(C(c2cc3cc(Br)ccc3nc2OC)C(O)(CCN(C)C)c2cncc(C)c2)c1F (centres unmarked) [Compound 30],0.16,0.2,–
COc1cccc(C(c2cc3cc(C#N)ccc3nc2OC)C(O)(CCN(C)C)c2cncc(C)c2)c1F (centres unmarked) [Compound 31],3.3,2.5,–
COc1cccc(C(c2cc3cc(Br)ccc3nc2OC)C(O)(CCN(C)C)c2cc(C)cnc2C)c1F (centres unmarked) [Compound 32],0.07,0.23,–
COc1cccc(C(c2cc3cc(Br)ccc3nc2OC)C(O)(CCN(C)C)c2cnc(C)c(C)c2)c1OC (centres unmarked) [Compound 34],0.07,0.14,–
COc1cccc(C(c2cc3cc(Br)ccc3nc2OC)C(O)(CCN(C)C)c2cnc(C)c(C)c2)c1F (centres unmarked) [Compound 35],0.31,0.29,–
COc1cccc(C(c2cc3cc(C#N)ccc3nc2OC)C(O)(CCN(C)C)c2cnc(C)c(C)c2)c1F (centres unmarked) [Compound 36],2.4,3.3,–
COc1cccc(C(c2cc3cc(Br)ccc3nc2OC)C(O)(CCN(C)C)c2cnc(C)cc2C)c1F (centres unmarked) [Compound 37],0.53,0.29,–
COc1nc2ccc(C#N)cc2cc1C(c1cccc2c1OCO2)C(O)(CCN(C)C)c1cccnc1OC (centres unmarked) [Compound 42],2.1,–,–
COc1ccc(C(O)(CCN(C)C)C(c2cc3cc(Br)ccc3nc2OC)c2cccc(OC)c2OC)cn1 (centres unmarked) [Compound 43],0.28,0.54,–
COc1ccc(C(O)(CCN(C)C)C(c2cc3cc(C#N)ccc3nc2OC)c2cccc(OC)c2OC)cn1 (centres unmarked) [Compound 44],2.1,–,–
COc1ccc(C(O)(CCN(C)C)C(c2cc3cc(Br)ccc3nc2OC)c2cccc(OC)c2F)cn1 (centres unmarked) [Compound 45],0.12,0.08,–
COc1cnc(OC)c(C(O)(CCN(C)C)C(c2cc3cc(Br)ccc3nc2OC)c2cccc(OC)c2F)c1 (centres unmarked) [Compound 46],0.09,0.04,microsomal CLint (in vitro [3]): 7 µL/min/mg; microsomal CLint (in vitro [4]): 53 µL/min/mg; IC50 (hERG potassium channel): 2900 nM
COc1cc(C(O)(CCN(C)C)C(c2cc3cc(Br)ccc3nc2OC)c2cccc(OC)c2F)cnc1OC (centres unmarked) [Compound 47],0.07,0.11,–
COc1cc(C(O)(CCN(C)C)C(c2cc3cc(Br)ccc3nc2OC)c2ccnc(OC)c2OC)c(OC)nc1OC (centres unmarked) [Compound 49],0.57,1.4,"AUC: exposure, AUCinf [5]: 9130 ng·h/mL; IV Cl: IV clearance ([5]; iv): 10 mL/min/kg; Vz: IV apparent volume of distribution during terminal phase ([5]; iv): 12 L/kg; F: oral bioavailability ([5]; po): 52%; microsomal CLint (in vitro [3]): 5 µL/min/mg; microsomal CLint (in vitro [4]): 7 µL/min/mg; IC50 (hERG potassium channel): 2700 nM"
COc1cccc(C(c2cc3cc(Br)ccc3nc2OC)C(O)(CCN(C)C)c2ccncc2C)c1F (centres unmarked) [Compound 50],1,1.1,–
COc1cccc(C(c2cc3cc(Br)ccc3nc2OC)C(O)(CCN(C)C)c2ccnc(C)c2)c1F (centres unmarked) [Compound 51],0.47,0.58,–
COc1cccc(C(c2cc3cc(C#N)ccc3nc2OC)C(O)(CCN(C)C)c2ccnc(C)c2)c1F (centres unmarked) [Compound 52],> 5,3.8,–
COc1nc2ccc(Br)cc2cc1C(c1cccc(C)c1)C(O)(CCN(C)C)c1cc(C)nc(C)c1 (centres unmarked) [Compound 53],0.11,0.49,–
COc1cccc(C(c2cc3cc(Br)ccc3nc2OC)C(O)(CCN(C)C)c2cc(C)nc(C)c2)c1F (centres unmarked) [Compound 54],0.11,0.3,–
CCc1cc(C(O)(CCN(C)C)C(c2cc3cc(Br)ccc3nc2OC)c2cccc(OC)c2F)cc(CC)n1 (centres unmarked) [Compound 58],0.03,0.21,"microsomal CLint (in vitro [3]): 8 µL/min/mg; microsomal CLint (in vitro [4]): 20 µL/min/mg; hERG % inhibition at 3 µM (hERG potassium channel; 3 µM, manual or (less accurate) QPatch assay): 63%/3"
CCc1cc(C(O)(CCN(C)C)C(c2cc3cc(C#N)ccc3nc2OC)c2cccc(OC)c2F)cc(CC)n1 (centres unmarked) [Compound 59],0.19,0.28,"microsomal CLint (in vitro [3]): 10 µL/min/mg; microsomal CLint (in vitro [4]): 27 µL/min/mg; hERG % inhibition at 1 µM (hERG potassium channel; 1 µM, manual assay): 48%/1"
COc1cc(C(O)(CCN(C)C)C(c2cc3cc(Br)ccc3nc2OC)c2cccc(OC)c2F)c(OC)cn1 (centres unmarked) [Compound 60],0.11,0.12,microsomal CLint (in vitro [3]): 7 µL/min/mg; microsomal CLint (in vitro [4]): 25 µL/min/mg; IC50 (hERG potassium channel): 1700 nM
